{
  "source": "paper PMC3880013",
  "about": "“Toward an Understanding of Agonist Binding to Human Orexin-1 and Orexin-2 Receptors with G-Protein-Coupled Receptor Modeling and Site-Directed Mutagenesis” (Biochemistry, 2013)",
  "experiment_in_all_cases": "Calcium flux assay, CHO-K1 cells stably expressing Orexin receptor mutant",
  "type_in_all_cases": "cell-based, human",
  "key": {"hOX2 Q134A": {"tested_on": "hOX2 Q134A", "details": "hOX2 Q134A (3.32) relative to wild type, CHO-K1, Fluo-4AM, this work", "procedure": "(§1) A combination of overlap and mismatch polymerase chain reaction (PCR) was used to introduce mutations into the corresponding Orexin-1 and Orexin-2 cDNAs as described by us previously.[62] Each mutation was made via the generation of two overlapping PCR fragments with PfuUltra II Fusion HS DNA Polymerase (Strategene). The two products were extracted, and a second round of PCR was performed via combination of both fragments with 5′ and 3′ gene specific primers (containing BamHI and NotI restriction sites, respectively). The resulting gel-purified products were then cloned into expression vector pFB-Neo for subsequent generation of stable cell lines. Constructs were confirmed via sequencing. Each verified cDNA was subsequently used to generate single, stably expressing clones in the CHO-K1 cell line.\n(§2) Standard calcium flux assays were used to assess the functionality of each OX receptor mutant. Each CHO-K1 Orexin mutant was seeded into tissue culture-treated, 384-well, black clear-bottom plates (CellBind Corning 7086), at a density of 7500 cells/well in culture medium and maintained in an incubator (5% CO2 at 37 °C) overnight. The cell medium was removed, and the cells were incubated in 20 μL of assay buffer (4 μM Fluo-4AM in HBSS with 0.1% BSA) for 90 min at 37 °C. After incubation, the dye was removed and 45 μL of fresh buffer, without dye, was applied. Antagonists (5 μL) were applied, and after incubation for an additional 20 min at 37 °C, 20 μL of receptor specific agonists was applied and the calcium flux monitored using a Flex Station (Molecular Devices) over a period of 1 min. In all cases, the EC80 specific for the individual mutant as determined in previous experiments was reported."}, "hOX1 Q179A": {"tested_on": "hOX1 Q179A", "details": "hOX1 Q179A (4.60) vs wild type, CHO-K1, Fluo-4AM, this work", "procedure": "as §1, §2"}, "hOX1 Y311F": {"tested_on": "hOX1 Y311F", "details": "hOX1 Y311F (6.48) relative to wild type, CHO-K1, Fluo-4AM, this work", "procedure": "as §1, §2"}, "hOX2 Q187A": {"tested_on": "hOX2 Q187A", "details": "hOX2 Q187A (4.60) relative to wild type, CHO-K1, Fluo-4AM, this work", "procedure": "as §1, §2"}, "hOX2 F227W": {"tested_on": "hOX2 F227W", "details": "hOX2 F227W (5.42) relative to wild type, CHO-K1, Fluo-4AM, this work", "procedure": "as §1, §2"}},
  "note": "Marks after values point to notes of the source that are not given here.",
  "data": [
    {"substance": "Orexin-B", "values": [
      {"measurement": "ratio EC50(mut)/EC50(WT)", "setting": "hOX2 Q134A", "result": "5.1 ^d fold"},
      {"measurement": "fold improvement in potency relative to wild type", "setting": "hOX1 Q179A", "result": 72.2, "unit": "fold improvement"},
      {"measurement": "ratio EC50(mut)/EC50(WT)", "setting": "hOX1 Y311F", "result": "0.85 ^d fold"},
      {"measurement": "ratio EC50(mut)/EC50(WT)", "setting": "hOX2 Q187A", "result": "1.7 ^d fold"},
      {"measurement": "ratio EC50(mut)/EC50(WT)", "setting": "hOX2 F227W", "result": "75.0 ^d fold"}
    ]}
  ]
}
